Measurements published in patent publication US10662204B2 (PFIZER INC., priority 2018, dated 2020).
Blank lines part the entries; values can stand above or below the compound they belong to.

Legend:
[1] = target: T1, GDP-loaded KRAS (1-169) G12C, C51S, C80L, C118S (Homo sapiens, UniProt P01116, C118S/C51S/C80L/G12C); experiment: Mass Spectrometry Reactivity Assay (MSRA): covalent adduct of compound and KRAS G12C, Percent Modification; type: binding; conditions: for MSRA (% modification) 5.0 μM 0.017 hr / MSRA (% modification) 5.0 μM 0.25 hr: 5.0 μM compound; for MSRA (% modification) 10 μM 0.50 hr / MSRA (% modification) 10 μM 0.25 hr: 10 μM compound
T1 construct: GDP-loaded KRAS (1-169) G12C, C51S, C80L, C118S
How it was run: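 Covalent labelling is measured by intact mass: deconvoluted modified and unmodified peak intensities yield percent modification. Compound, usually 5 μM or 10 μM final, reacts at room temperature with 5 μM GDP-bound KRAS G12C (1-169, C51S/C80L/C118S) in Hepes pH 7.5/NaCl/glycerol, sampled at 1, 15, 30, 60 min.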

KRAS G12C = KRAS G12C (Homo sapiens, UniProt P01116, G12C); experiment: Cell Activity Assay: accumulation of GDP-bound KRAS G12C in MIAPaCa-2 cells (Raf-1 RBD capture, MSD readout); type: cell-based; parameters: endogenous in cells; host or cells: MIAPaCa-2; conditions: 6 hours, assay limit is 30.00
How it was run: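 IC50 came from a 4-parameter fit of Ras signal normalized between DMSO and full-inhibition controls. Readout: lysate GTP-Ras bound to immobilized Raf-1 RBD, quantified with pan-Ras antibody and MSD electrochemiluminescence. Lysates derived from MIAPaCa-2 cells treated 6 h with serially diluted compound, 0.3% DMSO.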

MSRA (% modification) 5.0 μM 0.017 hr [1]: 55% | IC50 (KRAS G12C): 0.055 µM
Structure (SMILES): C=CC(=O)N1CCN(c2nc(Oc3cccc4c3CCN(C)C4)nc3c(Oc4c(C)ccc5[nH]ncc45)nccc23)CC1 [Example 38I, 1-(4-{8-[(5-methyl-1H-indazol-4-yl)oxy]-2-[(2-methyl-1,2,3,4-tetrahydro-isoquinolin-5-yl)oxy]pyrido [3,4-d]pyrimidin-4-yl}piperazin-1-yl)prop-2-en-1-one]

MSRA (% modification) 10 μM 0.50 hr [1]: 27% | IC50 (KRAS G12C): > 30 µM
Structure (SMILES): C=CC(=O)N1CCN(c2ncnc3c(Oc4cc(O)cc5ccccc45)nc(C(F)(F)F)cc23)CC1 [Example 01, 1-(4-{8-[(3-hydroxynaphthalen-1-yl)oxy]-6-(trifluoromethyl)pyrido[3,4-d]pyrimidin-4-yl}piperazin-1-yl)prop-2-en-1-one]

MSRA (% modification) 10 μM 0.50 hr [1]: 53% | IC50 (KRAS G12C): 1.62 µM
Structure (SMILES): C=CC(=O)N1CCN(c2ncnc3c(Oc4c(Cl)c(C)cc5[nH]ncc45)cccc23)CC1 [Example 06C, 1-(4-{8-[(5-chloro-6-methyl-1H-indazol-4-yl)oxy]quinazolin-4-yl}piperazin-1-yl)prop-2-en-1-one]

MSRA (% modification) 10 μM 0.50 hr [1]: 36% | IC50 (KRAS G12C): 3.74 µM
Structure (SMILES): C=CC(=O)N1CCN(c2ncnc3c(Oc4c(C)ccc5[nH]ncc45)cc(Br)cc23)CC1 [Example 13C, 1-(4-{6-bromo-8-[(5-methyl-1H-indazol-4-yl)oxy]quinazolin-4-yl}piperazin-1-yl)prop-2-en-1-one]

MSRA (% modification) 10 μM 0.50 hr [1]: 24% | IC50 (KRAS G12C): 7.4 µM
Structure (SMILES): C=CC(=O)N1CCN(c2nc(N3CC[C@@H](N(C)C)C3)nc3c(Oc4c(C)ccc5[nH]ncc45)cccc23)CC1 [Example 09E, 1-(4-{2-[(3R)-3-(dimethylamino)pyrrolidin-1-yl]-8-[(5-methyl-1H-indazol-4-yl)oxy]quinazolin-4-yl}piperazin-1-yl)prop-2-en-1-one]

MSRA (% modification) 5.0 μM 0.017 hr [1]: 75% | IC50 (KRAS G12C): 0.021 µM
Structure (SMILES): C=CC(=O)N1CCN(c2nc(O[C@@H]3CN(C)C[C@H]3OC)nc3c(Oc4c(Cl)ccc5[nH]ncc45)nc(Cl)cc23)CC1 [Example 38G, 1-[4-(6-chloro-8-[(5-chloro-1H-indazol-4-yl)oxy]-2-{[(3R,4R)-4-methoxy-1-methylpyrrolidin-3-yl]oxy}pyrido[3,4-d]pyrimidin-4-yl)piperazin-1-yl]prop-2-en-1-one]

MSRA (% modification) 5.0 μM 0.25 hr [1]: 46% | IC50 (KRAS G12C): 0.331 µM
Structure (SMILES): C=CC(=O)N1CCN(c2nc(Oc3cccnc3C(F)(F)F)nc3c(Oc4c(Cl)c(F)cc5[nH]ncc45)nccc23)CC1 [Example 07I, 1-[4-(8-[(5-chloro-6-fluoro-1H-indazol-4-yl)oxy]-2-{[2-(trifluoro-methyl)pyridin-3-yl]oxy}pyrido [3,4-s]pyrimidin-4-yl)piperazin-1-yl]prop-2-en-1-one]

MSRA (% modification) 10 μM 0.50 hr [1]: 9% | IC50 (KRAS G12C): 24.1 µM
Structure (SMILES): C=CC(=O)N1CCN(c2ncnc3c(Oc4c(C)ccc5[nH]nc(C)c45)nccc23)CC1 [Example 17A, 1-(4-{8-[(3,5-dimethyl-1H-indazol-4-yl)oxy]pyrido[3,4-d]pyrimidin-4-yl}piperazin-1-yl)prop-2-en-1-one]

MSRA (% modification) 10 μM 0.25 hr [1]: 72% | MSRA (% modification) 10 μM 0.50 hr [1]: 76% | IC50 (KRAS G12C): 0.559 µM
Structure (SMILES): C=CC(=O)N1CCN(c2nc(OCCN(C)C)nc3c(Oc4c(Cl)c(C)cc5[nH]ncc45)nccc23)CC1 [Example 05E, 1-(4-{8-[(5-chloro-6-methyl-1H-indazol-4-yl)oxy]-2-[2-(dimethylamino)ethoxy]pyrido[3,4-d]pyrimidin-4-yl}piperazin-1-yl)prop-2-en-1-one]

MSRA (% modification) 10 μM 0.50 hr [1]: 65% | IC50 (KRAS G12C): 1.01 µM
Structure (SMILES): C=CC(=O)N1CCN(c2nc(N3CC(N(C)C)C3)nc3c(Oc4c(Cl)c(C)cc5[nH]ncc45)cccc23)CC1 [Example 14E, 1-(4-{8-[(5-chloro-6-methyl-1H-indazol-4-yl)oxy]-2-[3-(dimethylamino)azetidin-1-yl]quinazolin-4-yl}piperazin-1-yl)prop-2-en-1-one]

MSRA (% modification) 10 μM 0.50 hr [1]: 20% | IC50 (KRAS G12C): 29.7 µM
Structure (SMILES): C=CC(=O)N1CCN(c2ncnc3c(Oc4cc(O)cc5ccccc45)nccc23)CC1 [Example 06, 1-(4-{8-[(3-Hydroxynaphthalen-1-yl)oxy]pyrido[3,4-d]pyrimidin-4-yl}piperazin-1-yl)prop-2-en-1-one]

The next lines start with the compound.

Structure (SMILES): C=CC(=O)N1CCN(c2nc(O[C@H]3CCOC3)nc3c(Oc4c(Cl)c(F)cc5[nH]ncc45)nccc23)CC1 [Example 01J, 1-(4-{8-[(5-chloro-6-fluoro-1H-indazol-4-yl)oxy]-2-[(3S)-tetrahydrofuran-3-yloxy]pyrido[3,4-d]pyrimidin-4-yl}piperazin-1-yl)prop-2-en-1-one]
MSRA (% modification) 5.0 μM 0.25 hr [1]: 55% | IC50 (KRAS G12C): 0.339 µM

Structure (SMILES): C=CC(=O)N1CCN(c2ncnc3c(Oc4c(C)c(Cl)cc5[nH]ncc45)cccc23)CC1CC#N (stereo not shown) [Example 22C, (1-acryloyl-4-{8-[(5-chloro-6-mehtyl-1H-indazol-4-yl)oxy]quinazolin-4-yl}piperazin-2-yl)acetonitrile]
MSRA (% modification) 10 μM 0.25 hr [1]: 75% | MSRA (% modification) 10 μM 0.50 hr [1]: 75% | IC50 (KRAS G12C): 14 µM

Structure (SMILES): C=CC(=O)N1CCN(c2nc(O[C@@H]3CN(CC)C[C@H]3OC)nc3c(Oc4c(Cl)c(F)cc5[nH]ncc45)nccc23)CC1 [Example 17H, 1-[4-(8-[(5-chloro-6-fluoro-1H-indazol-4-yl)oxy]-2-{[(3R,4R)-1-ethyl-4-methoxypyrrolidin-3-yl]oxy}pyrido[3,4-d]pyrimidin-4-yl)piperazin-1-yl]prop-2-en-1-on]
MSRA (% modification) 5.0 μM 0.017 hr [1]: 69% | IC50 (KRAS G12C): 0.026 µM

Structure (SMILES): C=CC(=O)N1CCN(c2ncnc3c(Oc4c(Cl)c(F)cc5[nH]ncc45)nccc23)C[C@@H]1C [Example 26A, 1-[(2S)-4-{8-[(5-chloro-6-fluoro-1H-indazol-4-yl)oxy]pyrido[3,4-d]pyrimidin-4-yl}-2-methylpiperazin-1-yl]prop-2-en-1-one]
MSRA (% modification) 10 μM 0.50 hr [1]: 14% | IC50 (KRAS G12C): 27.6 µM

Structure (SMILES): C=CC(=O)N1CCN(c2nc(OC[C@@H]3C[C@@H](OC)CN3C)nc3c(Oc4c(Cl)c(F)cc5[nH]ncc45)nccc23)CC1 [Example 13H, 1-[4-(8-[(5-chloro-6-fluoro-1H-indazol-4-yl)oxy]-2-{[(2S,4R)-4-methoxy-1-methylpyrrolidin-2-yl]methoxy}pyrido[3,4-d]pyrimidin-4-yl)piperazin-1-yl]prop-2-en-1-one]
MSRA (% modification) 5.0 μM 0.25 hr [1]: 65% | MSRA (% modification) 10 μM 0.25 hr [1]: 83% | IC50 (KRAS G12C): 0.311 µM

Structure (SMILES): C=CC(=O)N1CCN(c2nc(Oc3cccc4c3CCN(C3CC3)C4)nc3c(Oc4c(Cl)c(F)cc5[nH]ncc45)nccc23)CC1 [Example 55I, 1-(4-{8-[(5-chloro-6-fluoro-1H-indazol-4-yl)oxy]-2-[(2-cyclo-propyl-1,2,3,4-tetrahydro-isoquinolin-5-yl)oxy]pyrido [3,4-d]pyrimidin-4-yl}piperazin-1-yl)prop-2-en-1-one]
MSRA (% modification) 5.0 μM 0.017 hr [1]: 60% | IC50 (KRAS G12C): 0.028 µM

Structure (SMILES): C=CC(=O)N1CCN(c2nc(OC[C@H]3CCCO3)nc3c(Oc4c(Cl)c(F)cc5[nH]ncc45)nccc23)CC1 [Example 06H, 1-(4-{8-[(5-chloro-6-fluoro-1H-indazol-4-yl)oxy]-2-[(2R)-tetrahydrofuran-2-ylmethoxy]pyrido[3,4-d]pyrimidin-4-yl}piperazin-1-yl)prop-2-en-1-one]
MSRA (% modification) 5.0 μM 0.25 hr [1]: 48% | MSRA (% modification) 10 μM 0.25 hr [1]: 60% | IC50 (KRAS G12C): 0.611 µM
